# PubChem BioAssay AID330 (DTP/NCI, 2004)
# Several values for one entry are separate records, joined by “and”; a condition that tells them apart may be missing. Identical values can stand only once. Inconclusive results and toxic doses are left out. Peptide text beside a SMILES is read from it. * marks the point of attachment. Cbz = O=C(OCc1ccccc1)*; OtBu = CC(C)(C)O*
# Tested on: P388 leukemia ip, CD2F1 mice, survival T/C
# Assay: NCI In Vivo Anticancer Drug Screen. Data for tumor model P388 Leukemia (intraperitoneal) in CD2F1 (CDF1) mice
# Details: endpoint: median survival time, higher = longer survival
# Outline: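 Mice carrying the transplanted tumor received test compound or vehicle. Survival was recorded in each group, and the value is the treated-group measurement divided by that of the vehicle-treated control group.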
# [1] = dose: 50.0 mg/kg/injection, schedule: Q01DX009 (ip), vehicle: saline
# [2] = dose: 100.0 mg/kg/injection, schedule: Q01DX009 (ip), vehicle: saline
# [3] = dose: 200.0 mg/kg/injection, schedule: Q01DX009 (ip), vehicle: saline
# [4] = dose: 50.0 mg/kg/injection, schedule: Q01DX005 (ip), vehicle: Klucel (hydroxypropylcellulose) (HPC)
# [5] = dose: 100.0 mg/kg/injection, schedule: Q01DX005 (ip), vehicle: Klucel (hydroxypropylcellulose) (HPC)
# [6] = dose: 200.0 mg/kg/injection, schedule: Q01DX005 (ip), vehicle: Klucel (hydroxypropylcellulose) (HPC)
# [7] = dose: 50.0 mg/kg/injection, schedule: Q01DX005 (ip), vehicle: saline with Tween-80
# [8] = dose: 100.0 mg/kg/injection, schedule: Q01DX005 (ip), vehicle: saline with Tween-80
# [9] = dose: 200.0 mg/kg/injection, schedule: Q01DX005 (ip), vehicle: saline with Tween-80
# [10] = dose: 12.5 mg/kg/injection, schedule: Q01DX009 (ip), vehicle: saline
# [11] = dose: 25.0 mg/kg/injection, schedule: Q01DX009 (ip), vehicle: saline
# [12] = dose: 17.5 mg/kg/injection, schedule: Q01DX005 (ip), vehicle: Klucel (hydroxypropylcellulose) (HPC)
# [13] = dose: 35.0 mg/kg/injection, schedule: Q01DX005 (ip), vehicle: Klucel (hydroxypropylcellulose) (HPC)
compound,measurement,setting,value
Nc1cc2c(c[n+](CCCCCCCCCC[n+]3cc4c5ccccc5c(N)cc4c4ccccc43)c3ccccc23)c2ccccc12,T/C,"dose: 0.78 mg/kg/injection, schedule: Q04DX003 (ip), vehicle: other",118 % of control
same,T/C,"dose: 12.5 mg/kg/injection, schedule: Q04DX003 (ip), vehicle: distilled water + Tween-80",166 % of control
same,T/C,"dose: 25.0 mg/kg/injection, schedule: Q04DX003 (ip), vehicle: distilled water + Tween-80",159 % of control
same,T/C,"dose: 25.0 mg/kg/injection, schedule: Q04DX003 (ip), vehicle: other",160 % of control and 166 % of control
same,T/C,"dose: 50.0 mg/kg/injection, schedule: Q04DX003 (ip), vehicle: distilled water + Tween-80",165 % of control
same,T/C,"dose: 50.0 mg/kg/injection, schedule: Q04DX003 (ip), vehicle: other",157 % of control and 160 % of control
same,T/C,"dose: 100.0 mg/kg/injection, schedule: Q04DX003 (ip), vehicle: distilled water + Tween-80",161 % of control
same,T/C,"dose: 200.0 mg/kg/injection, schedule: Q04DX003 (ip), vehicle: distilled water + Tween-80",161 % of control
same,T/C,"dose: 200.0 mg/kg/injection, schedule: Q04DX003 (ip), vehicle: other",169 % of control
same,T/C,"dose: 400.0 mg/kg/injection, schedule: Q04DX003 (ip), vehicle: distilled water + Tween-80",175 % of control
CN(C1=NC1(C)C)c1ccccc1,T/C,[1],96 % of control
same,T/C,[2],94 % of control
same,T/C,[3],91 % of control
CC(C)CC(NC(=O)C(Cc1ccccc1)NC(=O)C1CCCN1)C(=O)OC(C)(C)C (stereo not drawn) (H-Pro-Phe-Leu-OtBu; configuration not given here),T/C,[4],102 % of control
same,T/C,[5],94 % of control
same,T/C,[6],94 % of control
CN1C(=O)C(CCCN=C(N)N)NC1=S (stereo unspecified),T/C,"dose: 60.0 mg/kg/injection, schedule: Q01DX005 (ip), vehicle: saline",98 % of control
same,T/C,"dose: 120.0 mg/kg/injection, schedule: Q01DX005 (ip), vehicle: saline",111 % of control
same,T/C,"dose: 240.0 mg/kg/injection, schedule: Q01DX005 (ip), vehicle: saline",104 % of control
O=C1NC(=O)C2(CCCc3ccccc32)N1 (stereo unspecified),T/C,[4],101 % of control
same,T/C,[7],97 % of control
same,T/C,[5],104 % of control
same,T/C,[8],94 % of control
same,T/C,[6],104 % of control
same,T/C,[9],94 % of control
CC(=O)NC(CSc1ccccc1)C(=O)O (stereo unspecified),T/C,[7],100 % of control
same,T/C,[8],100 % of control
same,T/C,[9],99 % of control
CC(C)CC(NC(=O)C(NC(=O)OCc1ccccc1)C(C)C)C(=O)O (stereo not drawn) (Cbz-Val-Leu-OH; configuration not given here),T/C,[7],92 % of control
same,T/C,[8],106 % of control
same,T/C,[9],111 % of control
O=C(O)Cc1cn2ccncc2n1,T/C,"dose: 100.0 mg/kg/injection, schedule: Q01DX001 (ip), vehicle: Klucel (hydroxypropylcellulose) (HPC)",90 % of control
same,T/C,"dose: 200.0 mg/kg/injection, schedule: Q01DX001 (ip), vehicle: Klucel (hydroxypropylcellulose) (HPC)",101 % of control
same,T/C,"dose: 400.0 mg/kg/injection, schedule: Q01DX001 (ip), vehicle: Klucel (hydroxypropylcellulose) (HPC)",101 % of control
COB(C1CCCCC1)C1CCCCC1,T/C,"dose: 50.0 mg/kg/injection, schedule: Q01DX009 (ip), vehicle: acetone",100 % of control
same,T/C,"dose: 100.0 mg/kg/injection, schedule: Q01DX009 (ip), vehicle: acetone",105 % of control
same,T/C,"dose: 200.0 mg/kg/injection, schedule: Q01DX009 (ip), vehicle: acetone",105 % of control
CCCCCCCCCCCC[N+]1([O-])CCCCC1,T/C,[10],89 % of control
same,T/C,[11],91 % of control
CC(=O)N(Sc1ccccc1)c1ccccc1,T/C,"dose: 25.0 mg/kg/injection, schedule: Q01DX009 (ip), vehicle: saline with Tween-80",110 % of control
same,T/C,"dose: 50.0 mg/kg/injection, schedule: Q01DX009 (ip), vehicle: saline with Tween-80",106 % of control
same,T/C,"dose: 100.0 mg/kg/injection, schedule: Q01DX009 (ip), vehicle: saline with Tween-80",103 % of control
O=Cc1c2ccc(Cl)cc2nc2cc(Cl)ccc12,T/C,"dose: 25.0 mg/kg/injection, schedule: Q01DX001 (ip), vehicle: saline with Tween-80",100 % of control
same,T/C,"dose: 50.0 mg/kg/injection, schedule: Q01DX001 (ip), vehicle: saline with Tween-80",90 % of control
same,T/C,"dose: 100.0 mg/kg/injection, schedule: Q01DX001 (ip), vehicle: saline with Tween-80",100 % of control
CN1C2C=CC(=O)C1C1C(=O)N(c3ccccc3)C(=O)C12 (stereo unspecified),T/C,[12],109 % of control and 121 % of control
same,T/C,[13],113 % of control and 118 % of control
same,T/C,"dose: 70.0 mg/kg/injection, schedule: Q01DX005 (ip), vehicle: Klucel (hydroxypropylcellulose) (HPC)",121 % of control
CC(OC(=O)c1ccccc1C(=O)O)c1ccccc1 (stereo unspecified),T/C,[10],91 % of control
same,T/C,[11],99 % of control and 101 % of control
same,T/C,[1],101 % of control and 108 % of control and 98 % of control
same,T/C,[2],104 % of control
same,T/C,[3],186 % of control
CC(C)(C(=O)O)n1c(-c2ccccc2)c(-c2ccccc2)oc1=O,T/C,"dose: 8.75 mg/kg/injection, schedule: Q01DX005 (ip), vehicle: Klucel (hydroxypropylcellulose) (HPC)",106 % of control
same,T/C,[12],106 % of control
same,T/C,[13],106 % of control
Nc1ccc2oc3ccccc3c2c1,T/C,"dose: 100.0 mg/kg/injection, schedule: Q04DX003 (ip), vehicle: saline with Tween-80",100 % of control
same,T/C,"dose: 200.0 mg/kg/injection, schedule: Q04DX003 (ip), vehicle: saline with Tween-80",103 % of control
Cc1csc2nc(-c3ccccc3)cn12,T/C,[7],98 % of control
same,T/C,[8],96 % of control
same,T/C,[9],97 % of control
CCc1c2c(cc3c1[nH]c1ccccc13)C(=O)NC2=O,T/C,"dose: 25.0 mg/kg/injection, schedule: Q01DX005 (ip), vehicle: Klucel (hydroxypropylcellulose) (HPC)",99 % of control
same,T/C,[4],90 % of control and 92 % of control
same,T/C,[5],97 % of control
same,T/C,[6],94 % of control
CC(=O)OCc1c(-c2ccccc2)sc2ccccc2c1=O,T/C,[4],96 % of control
same,T/C,[5],102 % of control
same,T/C,[6],97 % of control
Cc1cnc(C2OCCO2)c2cccc([N+](=O)[O-])c12,T/C,"dose: 50.0 mg/kg/injection, schedule: Q01DX009 (ip), vehicle: Klucel (hydroxypropylcellulose) (HPC)",105 % of control
same,T/C,"dose: 100.0 mg/kg/injection, schedule: Q01DX009 (ip), vehicle: Klucel (hydroxypropylcellulose) (HPC)",105 % of control
same,T/C,"dose: 200.0 mg/kg/injection, schedule: Q01DX009 (ip), vehicle: Klucel (hydroxypropylcellulose) (HPC)",101 % of control
CC1=C(O)CC(/C(C)=C/Cl)OC1=O (stereo unspecified),T/C,"dose: 100.0 mg/kg/injection, schedule: Q04DX002 (ip), vehicle: Klucel (hydroxypropylcellulose) (HPC)",103 % of control
same,T/C,"dose: 200.0 mg/kg/injection, schedule: Q04DX002 (ip), vehicle: Klucel (hydroxypropylcellulose) (HPC)",107 % of control
same,T/C,"dose: 400.0 mg/kg/injection, schedule: Q04DX002 (ip), vehicle: Klucel (hydroxypropylcellulose) (HPC)",102 % of control
COP(=O)(OC)/C(C)=N/NS(=O)(=O)c1ccc(C)cc1,T/C,"dose: 12.5 mg/kg/injection, schedule: Q01DX009 (ip), vehicle: other",91 % of control
same,T/C,"dose: 25.0 mg/kg/injection, schedule: Q01DX009 (ip), vehicle: other",91 % of control
same,T/C,"dose: 50.0 mg/kg/injection, schedule: Q01DX009 (ip), vehicle: other",99 % of control
same,T/C,"dose: 100.0 mg/kg/injection, schedule: Q01DX009 (ip), vehicle: other",100 % of control
same,T/C,"dose: 200.0 mg/kg/injection, schedule: Q01DX009 (ip), vehicle: other",98 % of control
same,T/C,"dose: 400.0 mg/kg/injection, schedule: Q01DX009 (ip), vehicle: other",94 % of control
c1cc2c(c(-c3nccc4c3CCCC4)n1)CCCC2,T/C,[7],109 % of control
same,T/C,[8],109 % of control
same,T/C,[9],93 % of control
O=C1CC(N2CCCC2)=Nc2ccccc2N1,T/C,[4],113 % of control
same,T/C,[5],104 % of control
same,T/C,[6],103 % of control
CCOc1nc(=O)[nH]c2c1CCCC2,T/C,"dose: 60.0 mg/kg/injection, schedule: Q01DX005 (ip), vehicle: Klucel (hydroxypropylcellulose) (HPC)",98 % of control
same,T/C,"dose: 120.0 mg/kg/injection, schedule: Q01DX005 (ip), vehicle: Klucel (hydroxypropylcellulose) (HPC)",98 % of control
OCCN1CCCN(CCCN2c3ccccc3Sc3ccc(C(F)(F)F)cc32)CC1,T/C,"dose: 6.25 mg/kg/injection, schedule: Q01DX005 (ip), vehicle: saline with Tween-80",97 % of control
same,T/C,"dose: 12.5 mg/kg/injection, schedule: Q01DX005 (ip), vehicle: saline with Tween-80",102 % of control
same,T/C,"dose: 25.0 mg/kg/injection, schedule: Q01DX005 (ip), vehicle: saline with Tween-80",118 % of control
